# Laboratory results reported in patent publication US4654368A, “Tri-organotin silatrane derivatives and pesticidal compositions, fungicides or antifouling agents comprising said compounds as active ingredients” (Nitto Kasei Co., Ltd., priority 1984, dated 1987).
# Experiments:
# Plasmopara viticola = assay: Test on fungicidal effect on downy mildew of grape; assay type: in vivo; details: sprayed on grape seedlings
# From the text: Sandy soil was filled in plastic pots, and seeds of grape (variety: Neomuscat) were sown, and grown for about 1 month in a greenhouse to obtain young seedlings of grape in the 2-3 leaf stage. A water dilution of an emulsifiable concentrate of a wettable powder of each of the test compounds was sprayed onto the leaves of these seedlings so that the chemical adhered fully to the surfaces of the leaves. After drying the chemical in air, a suspension of conidospores of a […] pathogen of grape (Plasmopara viticola) was inoculated in the seedling by spraying. The seedlings were placed for 2 days in a high humidity condition at 23° C., and subsequently cultivated for 14 days in a greenhouse kept at 20° to 25° C. to cause onset of the disease. Thereafter, the state of the disease was observed.
# The degree of disease was calculated by the following method. The examined leaves were classified by indices of 0, 0.5, 1, 2 and 4 according to the degrees of appearance of lesions, and the degree of disease was calculated from the following equation.
# 0: No fungus colony or lesion was noted on the surface of the leaves.
# The control index was calculated from the following equation. [formula]
# Culex pipiens = assay: Test on insecticidal effect on Culex pipiens; assay type: in vivo; details: 3.5 ppm, wettable powder of Formulation Example 5 (contains Fenitrothion); for Death rate: final-instar larvae, next day, 1440 min; for Emergence inhibition rate: when all larvae in non-treated area emerged
# Experimental: A wettable powder of each of compounds Nos. 2, 7, 8, 11, 13, 14, 17, 18 and 31 obtained in accordance with Formulation Example 5 was diluted with water to 3.5 ppm. One hundred milliliters of the dilution was put in each of 180 ml. polyethylene cups and 20 final-instar larvae of Culex pipiens were released into the cup. On the next day, the larvae were examined for mortality.
# Thereafter, feeds were added to the test areas, and when all larvae n the non-treated area emerged, the emergence inhibition rate was examined.
# The death rate and the emergence inhibition rate were rated by three grades as follows: […]
# [1] = system: marine animals and plants; assay: Test on antifouling effects on marine animals and plants in the sea; assay type: in vivo; details: Owase Bay; for Fouled state, period of submerging 4 months / Fouled state, period of submerging 8 months / Fouled state, period of submerging 12 months: antifouling paint on vinyl chloride plate
# Experimental: A ship bottom antifouling paint was prepared by adding 24 g of Rosin WW, 12 g of a vinyl copolymer, 4 g of tricresyl phosphate, 10 g of bentonite, 20 g of baryta, 20 g of red iron oxide, 35 g of xylene and 35 g of methyl isobutyl ketone to 40 g of each of compounds Nos. 2, 8, 14, 17, 20 and 32 of the invention and vigorously stirring the mixture at room temperature for 1 hour. The paint was coated on both surfaces of a rigid vinyl chloride resin plate, 17×9×0.3 cm in size, to a dry thickness of about 200 microns. The coated plate was submerged in the sea in Owase Bay, Mie Prefecture, Japan for 12 months, and its fouled state was regularly observed.
# The symbols in the table show the following.
# [2] = system: tobacco cutworms (Prodenia litura Fabrficius); assay: Test on insecticidal efficacy on tobacco cutworms; assay type: in vivo; details: 500 ppm in artificial feed, 4th-instar larvae, 6 days; wettable powder of Formulation Example 5 (contains Fenitrothion)
# Experimental: A wettable powder of each of compounds Nos. 3, 7, 8, 9, 11, 12, 13, 14, 17, 18 and 31 of the invention obtained in accordance with Formulation Example 5 was diluted with water to 200 times (corresponding to a concentration of 500 ppm). Two milliliters of the dilution was impregnated in 13 g of an artificial feed for tobacco cutworms, and the feed was put in a polyethylene cup having a diameter of 11 cm. Ten 4th-instar larvae of tobacco cutworms were released into the cup, and examined for mortality 6 days later. The above experiment was carried out through two replicates.
# [3] = system: carmine mites (Tetranychus telarius L.); assay: Miticidal effect on carmine mites; assay type: in vivo; set-up: key: -: Hardly any injury was observed.; +: Some injury was observed.; ++: The same injury as in the non-treated area was noted; details: 500 ppm active ingredient, spray plus soil, kidney beans, 8 days later
# Experimental: Female imagoes of carmine mites were caused to live at a rate of 10 per leaf on bineless kidney beans (in the primary leaf stage) in pots 7 days after sowing, and kept in a constant temperature chamber at 25° C. Six days later, a chemical obtained by diluting a wettable powder of each of compounds Nos. 4-6, 9-13, 15, 16, 21, 22, 25, 28-30, 33, 34, 36, 37 and 38 with water to an active ingredient concentration of 500 ppm was sprayed at a rate of 10 ml per pot, and at the same time, 2 ml of the chemical was poured into the soil. Eight days later, injuries to the plants by the mites were examined.
# The degree of injury is shown by -, + and ++ as follows: […]
# [4] = system: Aspergillus niger ATCC 6275; assay: Test on fungicidal effect on fungi (agar medium diluting method); assay type: cell-based; details: PDA, 27° C., cultivation period 4 days
# Experimental: (§1) By an agar medium diluting method, the fungicidal activities of compounds Nos. 12, 17, 18, 23, 24, 26, 27 and 32 of the invention on fungi doing harm to industrial products and materials were examined.
# (§2) A hypha piece, 5 mm in diameter, of each of the fungi indicated in Table 3 was inoculated in a potato dextrose agar medium (PDA) containing each of the above compounds, and cultivated at 27° C. After the lapse of a predetermined period, the growth state of the fungus was observed, and the minimum inhibitory concentration of the compound was determined.
# [5] = system: Caetomium globosum ATCC 6205; assay: as above; assay type: cell-based; details: PDA, 27° C., cultivation period 3 days (compound 18: 4 days)
# Experimental: as §1, §2
# [6] = system: Cladosporium herbarum TAMF 517; assay: as above; assay type: cell-based; details: PDA, 27° C., cultivation period 4 days
# Experimental: as §1, §2
# [7] = system: Penicillium citrinum ATCC 9849; assay: as above; assay type: cell-based; details: PDA, 27° C., cultivation period 4 days
# Experimental: as §1, §2
Structure (SMILES),Control index (Plasmopara viticola; 12.5 ppm active ingredient) [%],Control index (Plasmopara viticola; 50 ppm active ingredient) [%],Control index (Plasmopara viticola; 200 ppm active ingredient) [%],Death rate (Culex pipiens),Emergence inhibition rate (Culex pipiens),Death rate [2] [%],Minimum inhibitory concentration [4] [ppm],Minimum inhibitory concentration [5] [ppm],Minimum inhibitory concentration [6] [ppm],Minimum inhibitory concentration [7] [ppm],further results
c1cc[c]([Sn]([S]CCC[Si]23OCCN(CCO2)CCO3)([c]2ccccc2)[c]2ccccc2)cc1 [compound 1],97,100,100,,,,,,,,
"c1cc[c]([Sn]([S]CC[Si]23OCCN(CCO2)CCO3)([c]2ccccc2)[c]2ccccc2)cc1 [compound 2, 1-(2-triphenylstannylthioethyl)silatrane]",,,,B (less than 90% to 10%),A (90% or higher),,,,,,"Fouled state, period of submerging 4 months [1]: .circle.; Fouled state, period of submerging 8 months [1]: .circle.; Fouled state, period of submerging 12 months [1]: .circle."
CC1CN2CC(C)O[Si](CC[S][Sn]([c]3ccccc3)([c]3ccccc3)[c]3ccccc3)(O1)OC(C)C2 (stereo not drawn) [compound 3],98,100,100,,,100,,,,,
C1CC[CH]([Sn]([S]CC[Si]23OCCN(CCO2)CCO3)([CH]2CCCCC2)[CH]2CCCCC2)CC1 [compound 7],,,,C (less than 10%),A (90% or higher),100,,,,,
CCC[CH2][Sn]([CH2]CCC)([CH2]CCC)[S]CC[Si]12OC(C)CN(CC(C)O1)CC(C)O2 (stereo not drawn) [compound 8],94,100,100,B (less than 90% to 10%),A (90% or higher),100,,,,,"Fouled state, period of submerging 4 months [1]: .circle.; Fouled state, period of submerging 8 months [1]: .circle.; Fouled state, period of submerging 12 months [1]: .circle."
"CC1CN2CC(C)O[Si](CCC[S][Sn]([c]3ccccc3)([c]3ccccc3)[c]3ccccc3)(O1)OC(C)C2 (stereo not drawn) [compound 9, 1-(3-triphenylstannylthiopropyl)-3,7,10-trimethylsilatrane]",98,100,100,,,100,,,,,Degree of injury [3]: -
CC1CN2CC(C)O[Si](CCC[S][Sn]([CH]3CCCCC3)([CH]3CCCCC3)[CH]3CCCCC3)(O1)OC(C)C2 (stereo not drawn) [compound 11],96,100,100,B (less than 90% to 10%),A (90% or higher),100,,,,,Degree of injury [3]: -
CCC[CH2][Sn]([CH2]CCC)([CH2]CCC)[S]CCC[Si]12OC(C)CN(CC(C)O1)CC(C)O2 (stereo not drawn) [compound 12],100,100,100,,,100,< 12.5,< 12.5,< 12.5,< 12.5,Degree of injury [3]: -
C1CC[CH]([Sn]([S]CCC[Si]23OCCN(CCO2)CCO3)([CH]2CCCCC2)[CH]2CCCCC2)CC1 [compound 13],,,,A (90% or higher),A (90% or higher),100,,,,,Degree of injury [3]: -
CCC[CH2][Sn]([CH2]CCC)([CH2]CCC)[S]CCC[Si]12OCCN(CCO1)CCO2 [compound 14],,,,A (90% or higher),A (90% or higher),100,,,,,"Fouled state, period of submerging 4 months [1]: .circle.; Fouled state, period of submerging 8 months [1]: .circle.; Fouled state, period of submerging 12 months [1]: .circle."
CC[CH2][Sn]([CH2]CC)([CH2]CC)[S]CCC[Si]12OC(C)CN(CC(C)O1)CC(C)O2 (stereo not drawn) [compound 18],,,,B (less than 90% to 10%),A (90% or higher),100,< 2.5,< 12.5,< 12.5,< 12.5,
CCC1CN2CCO[Si](CCC[S][Sn]([c]3ccccc3)([c]3ccccc3)[c]3ccccc3)(O1)OC(CC)C2 (stereo not drawn) [compound 20],,,,,,,,,,,"Fouled state, period of submerging 4 months [1]: .circle.; Fouled state, period of submerging 8 months [1]: .circle.; Fouled state, period of submerging 12 months [1]: Δ (Marine animals and plants adhered to less than 5% of the area of the coated film); Fouled by ([1]; antifouling paint, up to 12 months): Algae"
CC[CH2][Sn]([CH2]CC)([CH2]CC)[S]CCC[Si]12OCCN(CC(CC)O1)CC(CC)O2 (stereo not drawn) [compound 23],,,,,,,< 2.5,< 2.5,< 2.5,< 2.5,
CCC[CH2][Sn]([CH2]CCC)([CH2]CCC)[S]CCC[Si]12OCCN(CCO1)CC(C)O2 (stereo not drawn) [compound 24],,,,,,,< 12.5,< 12.5,< 12.5,< 12.5,
CC(C)[CH2][Sn]([CH2]C(C)C)([CH2]C(C)C)[S]CCC[Si]12OCCN(CCO1)CCO2 [compound 26],,,,,,,< 12.5,< 12.5,< 12.5,< 12.5,
CC(C)[CH2][Sn]([CH2]C(C)C)([CH2]C(C)C)[S]CCC[Si]12OC(C)CN(CC(C)O1)CC(C)O2 (stereo not drawn) [compound 27],,,,,,,< 12.5,< 12.5,< 12.5,< 12.5,
CCC1CN2CCO[Si](CCC[S][Sn]([c]3ccccc3)([c]3ccccc3)[c]3ccccc3)(OCC2)O1 (stereo not drawn) [compound 31],,,,B (less than 90% to 10%),A (90% or higher),100,,,,,
CCC1CN2CC(C)O[Si](CCC[S][Sn]([c]3ccccc3)([c]3ccccc3)[c]3ccccc3)(OC(C)C2)O1 (stereo not drawn) [compound 32],,,,,,,< 12.5,< 12.5,< 12.5,< 12.5,"Fouled state, period of submerging 4 months [1]: .circle.; Fouled state, period of submerging 8 months [1]: .circle.; Fouled state, period of submerging 12 months [1]: .circle."
CCO[PH](=O)O [reference compound],,,68,,,,,,,,
